This note sets out measurements from PMC12152189, “Structure of a stripped-down and tuned-up far-red phycobilisome” (Communications Biology, 2025).

Holding throughout (assay): cryo-EM structure, […] Å
Common to all, as to format: binding

One experiment addresses T1, ApcE2 (in FR-APC) (Chroococcidiopsis thermalis, UniProt K9TUP3).
T1 construct: gene Chro_1035; native purification from far-red-grown cells; intact bicylindrical FR-APC; ApcE2 in second (alpha-beta)3 trimer
T1 sequence (K9TUP3 1-780): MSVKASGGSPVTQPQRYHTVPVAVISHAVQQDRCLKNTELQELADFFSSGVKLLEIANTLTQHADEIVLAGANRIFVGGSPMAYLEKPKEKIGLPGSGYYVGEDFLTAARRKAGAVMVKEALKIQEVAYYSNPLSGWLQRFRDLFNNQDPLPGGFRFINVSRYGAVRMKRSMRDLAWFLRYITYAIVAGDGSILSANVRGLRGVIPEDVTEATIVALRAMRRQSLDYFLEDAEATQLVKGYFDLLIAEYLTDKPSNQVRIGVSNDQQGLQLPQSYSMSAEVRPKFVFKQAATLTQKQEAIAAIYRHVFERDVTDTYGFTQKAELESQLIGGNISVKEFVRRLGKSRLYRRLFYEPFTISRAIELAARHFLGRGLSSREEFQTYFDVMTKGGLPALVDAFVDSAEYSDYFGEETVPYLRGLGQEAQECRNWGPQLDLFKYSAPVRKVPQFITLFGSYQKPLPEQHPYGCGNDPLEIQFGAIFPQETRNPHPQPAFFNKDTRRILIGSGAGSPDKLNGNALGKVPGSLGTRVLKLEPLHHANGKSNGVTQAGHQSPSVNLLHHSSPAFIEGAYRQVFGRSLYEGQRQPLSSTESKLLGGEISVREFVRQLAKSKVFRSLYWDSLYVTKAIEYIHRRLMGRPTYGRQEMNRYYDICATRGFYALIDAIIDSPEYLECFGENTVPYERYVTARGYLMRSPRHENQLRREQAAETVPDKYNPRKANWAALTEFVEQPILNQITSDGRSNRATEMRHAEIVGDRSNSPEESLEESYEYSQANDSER
T1 sequence (K9TY40 1-169 partner): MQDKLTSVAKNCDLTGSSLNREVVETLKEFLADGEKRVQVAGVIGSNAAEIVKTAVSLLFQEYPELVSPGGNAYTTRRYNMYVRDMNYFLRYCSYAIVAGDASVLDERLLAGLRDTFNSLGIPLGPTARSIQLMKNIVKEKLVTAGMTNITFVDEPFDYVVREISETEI
To be noted: non-covalent (no Cys linkage); ZZZ,ssa; ApcF2 Thr76 H-bonds ring D; pH 6.5.

In the next experiment the target is T2, ApcB2 (in FR-APC) (Chroococcidiopsis thermalis, UniProt K9TVG8).
T2 construct: gene Chro_1033; native purification from far-red-grown cells; intact bicylindrical FR-APC; ApcC contacts the proximal ApcB2 bilin only; with Far-red allophycocyanin alpha subunit ApcD5
T2 sequence (K9TVG8 1-161): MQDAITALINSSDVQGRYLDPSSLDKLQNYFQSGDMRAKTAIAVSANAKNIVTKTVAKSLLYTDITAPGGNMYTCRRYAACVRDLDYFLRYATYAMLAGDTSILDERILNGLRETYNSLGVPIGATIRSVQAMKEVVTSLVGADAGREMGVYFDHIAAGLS
T2 sequence (K9U510 1-67 partner): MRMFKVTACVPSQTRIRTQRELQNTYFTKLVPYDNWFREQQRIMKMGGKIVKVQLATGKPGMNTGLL
To be noted: covalent; several sites, proximal (with ApcC) and distal (without ApcC); pH 6.5.

The next experiment addresses T3, ApcF2 (in FR-APC) (Chroococcidiopsis thermalis, UniProt K9TY40).
T3 construct: gene Chro_1766; native purification from far-red-grown cells; intact bicylindrical FR-APC; heterodimer with ApcE2; with Far-red phycobilisome core-membrane linker protein ApcE2 (phycobiliprotein ApcE)
T3 sequence (K9TY40 1-169): T1 sequence (K9TY40 1-169 partner)
T3 sequence (K9TUP3 1-780 partner): T1 sequence (K9TUP3 1-780)
To be noted: non-covalent (no Cys linkage); ZZZ,ssa; Arg77 and Arg84 contact propionates; pH 6.5.

Turning to `C/C=C1/C(=C/c2[nH]c(/C=C3N=C(/C=C4\NC(=O)C(CC)=C4C)C(C)=C\3CCC(=O)O)c(CCC(=O)O)c2C)NC(=O)[C@@H]1C` [phycocyanobilin], the “cryo-EM structure, 2.51 Å” value is “the bilin pigments in ApcE2 and ApcF2 are non-covalently bound” on ApcE2 (in FR-APC); “ApcB2 is represented in green while phycocyanobilin is represented in blue” at ApcB2 (in FR-APC); “in ApcF2 the pigment is in ZZZ,ssa conformation” on ApcF2 (in FR-APC).
